In brackets after ≈: the same amount, converted by molar mass.

This note sets out measurements from US20240190872A1, “FABI INHIBITORS FOR GRAM-NEGATIVE PATHOGENS” (THE BOARD OF TRUSTEES OF THE UNIVERSITY OF ILLINOIS, priority 2021, published 2024).

For one assay, the system named is H. sapiens A549. The assay is described as follows: In-vitro cytotoxicity. The class given is cell-based.
A further assay concerns S. aureus USA300 LAC. The assay is described as follows: Neutropenic mouse thigh infection. It counts as in vivo, CD-1 mice. The settings on record: 5 mg/kg, r.o. The procedure:
FIG. 7. […] A) Neutropenic mouse thigh infection model initiated in female BALB/c mice with A. baumannii AR-88 (1.36×10^5 CFU per mouse intramuscular, left thigh) were treated with vehicle (5 mice) or fabimycin (10 mice) four times a day (75 mg/kg intravenously) and bacterial burden evaluated at 26 h post-infection. B) Neutropenic mouse thigh infection initiated in CD-1 mice with S. aureus USA300 LAC (2.3×10^6 CFU per mouse intramuscular in thigh) were treated with vehicle (8 mice) or FabI inhibitor (8 mice per group) 2 and 7 h post-infection (5 mg/kg retro-orbital IV), […]
(§1) With formulation, MTD, and pharmacokinetic data in hand, the efficacy of fabimycin was evaluated in murine infection models. To start, a comparative assessment was made of fabimycin and Debio-1452-NH3 in two murine neutropenic infection models using a dosing regimen that is at the MTD for Debio-1452-NH3 but below the MTD for fabimycin (three doses, intramuscular, at 50 mg/kg).
(§2) Chart 1. Summary of Fabimycin in vivo models.

The next assay deals with K. pneumoniae BAA 2472. Description: microbe, parasite or virus in culture. The class given is cell-based. The note with it: Klebsiella pneumoniae, BAA2472, read-out: MIC K. pneumoniae BAA 2472, clinical isolate. The essentials: (§3)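 MICs by CLSI broth microdilution in cation-adjusted Mueller-Hinton broth, performed in biological triplicate. Strains: efflux-deficient E. coli ΔtolC (JW5503, KEIO collection) and K. pneumoniae BAA-2472 (ATCC).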

The target of the next assay is CYP 2C19 (Homo sapiens (Human), UniProt P33261). The assay is described as follows: biochemical.
The next assay has as its system E. coli AR-55. Description: Murine urinary tract infection (UTI) model. The class given is in vivo, C3H/HeJ mice. The settings on record: TID. The procedure:
FIG. 4. In-vivo efficacy of fabimycin in a murine UTI. After inducing diuresis, infection initiated in C3H/HeJ mice (8 per arm, 1.38×10^9 CFU/mouse transurethral) with E. coli AR-55 and treated with fabimycin at varying concentrations three times daily with bacterial enumeration at 168 h post-infection. Percentage in parenthesis indicates the percentage of animals with bacterial counts below the limit of detection (LOD).
UTIs represent one of the biggest risks for healthy individuals in terms of exposure to antibiotic-resistant bacteria and many individuals contract one in their lifetime (roughly 1 in 2 women and 1 in 10 men); as such, these infections from Gram-negative pathogens, particularly those that are drug-resistant, remain a major clinical challenge. As E. coli is the causative agent in the great majority of UTIs fabimycin was evaluated in a murine UTI model with a challenging, extensively resistant strain of carbapenem resistant E. coli (fabimycin MIC=2 μg/mL). When dosed at 33.3 mg/kg, TID fabimycin was able to achieve 3.0, 2.8, 2.9, and 1.9 log10 reductions in bacterial load relative to the vehicle in the spleen, bladder, liver, and kidneys tissues, respectively (FIG. 4).
Chart 1. Summary of Fabimycin in vivo models. Log reductions are relative to the vehicle. • S. aureus • Neutropenic thigh infection w/S. aureus USA300 LAC • 5 mg/kg, r.o. • 26 h, 2.6 log reduction • A. baumannii • Neutropenic thigh infection w/A. baumannii AR-0299 • 50 mg/kg, intramuscular (2, 6, and 11 h post-infection) • 26 h, 2.3 log reduction • Acute lung infection w/A. baumannii AR-0299 • 50 mg/kg, intramuscular (QD) • 48 h, 3.9 log reduction • Neutropenic thigh infection w/A. baumannii AR-0088 • 75 mg/kg IV, QID • 26 h, 1.75 log reduction • E. coli • Urinary tract infection w/E. coli AR-0055 • 33.3 mg/kg IV, TID (100 mg/kg a day) • 168 h post-infection • Bladder—2.78 log reduction • Liver—2.85 log reduction • Spleen—3.04 log reduction • Kidneys—1.85 log reduction • Urine—2.32 log reduction

The subject of the next assay is A. baumannii AR-299. The assay is described as follows: Acute pneumonia (lung) infection. The class given is in vivo, CD-1 mice. The note with it: 50 mg/kg, intramuscular (QD), 48 h. How it is done:
as §1, §2

In another assay the test system is E. coli MG1655. The assay is described as follows: Antimicrobial susceptibility test (MIC). The note with it: Escherichia coli, MG1655. It counts as cell-based. The essentials:
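CLSI micro-dilution broth method in cation-adjusted Mueller-Hinton broth, in biological triplicate; human serum (pooled, filtered) was also used.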

Another assay deals with E. coli ΔtolC (JW5503). It counts as cell-based. The note with it: efflux deficient E. coli ΔtolC. In short, it runs like this:
as §3

[1] abbreviates: 33.3 mg/kg IV, 168 h post-infection.

Chain of CYP 2C19 (P33261 whole entry): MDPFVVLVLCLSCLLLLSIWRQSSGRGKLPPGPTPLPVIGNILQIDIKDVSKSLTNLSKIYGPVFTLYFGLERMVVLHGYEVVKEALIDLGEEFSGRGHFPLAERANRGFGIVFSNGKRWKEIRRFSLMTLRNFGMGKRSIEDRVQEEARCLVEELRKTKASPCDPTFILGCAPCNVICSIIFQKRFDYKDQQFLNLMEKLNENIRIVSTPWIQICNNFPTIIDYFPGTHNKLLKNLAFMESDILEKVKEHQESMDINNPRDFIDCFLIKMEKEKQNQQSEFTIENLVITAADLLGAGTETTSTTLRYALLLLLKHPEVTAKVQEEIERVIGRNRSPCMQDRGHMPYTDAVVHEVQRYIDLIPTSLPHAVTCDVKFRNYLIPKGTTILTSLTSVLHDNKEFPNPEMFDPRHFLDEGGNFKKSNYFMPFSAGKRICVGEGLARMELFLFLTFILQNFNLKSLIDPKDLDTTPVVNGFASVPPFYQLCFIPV

The term inhibition denotes the relative decrease from the control value, in per cent. For orientation: IC50 means the concentration needed to halve the response being measured. Low values mean inhibition by little substance, high ones a need for much substance. Regarding `Cc1c(CN(C)C(=O)/C=C/c2cnc3c(c2)CC[C@H](N)C(=O)N3)oc2ccccc12` [(S)-11, (S,E)-3-(7-amino-8-oxo-6,7,8,9-tetrahydro-5H-pyrido[2,3-b]azepin-3-yl)-N-methyl-N-((3-methylbenzofuran-2-yl)methyl)acrylamide], the inhibition at 30 µM in the assay with H. sapiens A549 was -1.2 ± 3.5%. This molecule also showed an IC50 in the assay on H. sapiens A549 (cytotoxicity) of 114 ± 3 µM. Besides, the “log reduction relative to the vehicle” value in the assay on S. aureus USA300 LAC was determined as 2.6 log. Also, the MIC with K. pneumoniae BAA 2472 was 4 µg/mL (≈ 9.89 µM). The IC50 at CYP 2C19 turned out to be 60 µM. Moreover, in the assay with E. coli AR-55 (setting [1]), the “log reduction relative to the vehicle, Bladder” value turned out to be 2.78 log; the “log reduction relative to the vehicle, Kidneys” value worked out at 1.85 log; the “log reduction relative to the vehicle, Liver” value is 2.85 log; the “log reduction relative to the vehicle, Spleen” value came to 3.04 log. In the assay on E. coli AR-55 (setting [1]), the “log reduction relative to the vehicle, Urine” value is given as 2.32 log. Further, in the assay with E. coli AR-55 (33.3 mg/kg), the “log10 reduction in bacterial load relative to the vehicle, bladder” value was found to be 2.8 log10; the “log10 reduction in bacterial load relative to the vehicle, kidneys” value is recorded as 1.9 log10; the “log10 reduction in bacterial load relative to the vehicle, liver” value is reported as 2.9 log10; the “log10 reduction in bacterial load relative to the vehicle, spleen” value was determined as 3.0 log10. Further, in the assay on A. baumannii AR-299, the “log reduction relative to the vehicle” value came to 3.9 log. The MIC against E. coli MG1655 stood at 2 µg/mL (≈ 4.94 µM). Besides, the “MIC E. coli ΔtolC” value with E. coli ΔtolC (JW5503) turned out to be 0.016 µg/mL (≈ 0.0396 µM).
